According to patent publication US20220370385A1, “COMPOSITIONS FOR USE IN INHIBITING SRC KINASE AND TREATING AND PREVENTING ASSOCIATED DISORDERS” (Enzene Biosciences Ltd., priority 2019, published 2022):

Tested on: MDA-MB-468 cells
Experiment: MDA-MB-468 cell viability, CellTiter-Glo, 24 hrs
Type: cell-based, human
Details: Homo sapiens, 24 hrs incubation
Protocol: MDA-MB-468 cells, isolated from a pleural effusion of a patient with metastatic adenocarcinoma of the breast, is a triple negative breast cancer (TNBC) cell line. The IC 50 value of E05 or lapatinib (Sigma) or the structural analogues of E05 were tested in this cell line.
Briefly, MDA-MB-468 cells (ATCC #HTB-32) were seeded with a density of 5,000 cells per well in a 96 well white plate (Costar Cat #3917) in DMEM media supplemented with 10% FBS (assay medium). The plates were incubated at 37° C., 5% CO2 for 24 hr. E05 and analogues were diluted in the assay medium and added to the respective wells of the assay plate. The plates were further incubated at 37° C., 5% CO2 for 24 hrs. After the incubation, the cell viability was assessed using CellTiter-Glo® and the plates were read for luminescence using Cytation 5 (Biotek). The relative luminescence unit (RLU) obtained was plotted against the concentration and EC50 values were estimated using Graphpad Prism 5 software (FIG. 15 and Table 2).

EC50: 122 µM
Compound: O=C(O)/C=C/c1ccc(O)c(O)c1 [E05_A]
